Results taken from ChEMBL document CHEMBL4261528, “Synthesis, molecular modeling and biological evaluation of aza-flavanones as α-glucosidase inhibitors” (Medchemcomm, 2017).

Test: Inhibition of baker's yeast alpha-glucosidase preincubated for 15 to 20 mins followed by p-nitrophenyl-alpha-D-glucopyranoside substrate addition measured after 45 to 60 mins by spectrophotometric method
Design: species or system Saccharomyces cerevisiae
Details: not given
For O=C1CC(c2ccc(Br)cc2)Nc2ccccc21 (configuration not stated), the IC50 was “Nd(Insoluble)”.

Same assay, conditions: read-out: IC50
With O=C1CC(c2ccsc2)Nc2ccccc21 (configuration not stated) the IC50 was 72.4 µM.
Cc1ccc(C2CC(=O)c3ccccc3N2)cc1C (configuration not stated) gave an IC50 of 606 µM.
With CCCCC1CC(=O)c2ccc(F)cc2N1 (configuration not stated) the IC50 was 134 µM.
For CCCC1CC(=O)c2ccccc2N1 (configuration not stated), the IC50 was 190 µM.
Work on O=C1CC(c2ccc(C(F)(F)F)cc2)Nc2ccccc21 (configuration not stated) yielded an IC50 of 53.5 µM.
O=C1CC(c2ccoc2)Nc2ccccc21 (configuration not stated) showed an IC50 of 352 µM.
C[C@H]1O[C@H](O[C@H]2[C@H](O)[C@@H](O)[C@@H](O[C@H]3[C@H](O)[C@@H](O)C(O)O[C@@H]3CO)O[C@@H]2CO)[C@H](O)[C@@H](O)[C@@H]1N[C@H]1C=C(CO)[C@@H](O)[C@H](O)[C@H]1O (some centres not stated) [ACARBOSE] showed an IC50 of 360 µM.
O=C1CC(c2ccncc2)Nc2ccccc21 (configuration not stated) showed an IC50 of 773 µM.
With O=C1CC(C2CCCCC2)Nc2ccccc21 (configuration not stated) the IC50 was 494 µM.
Work on O=C1CC(c2ccccc2)Nc2ccccc21 (configuration not stated) [Aza-flavanone] yielded an IC50 of 686 µM.
OCCN1C[C@H](O)[C@@H](O)[C@H](O)[C@H]1CO [MIGLITOL] showed an IC50 of 462 µM.
O=C1CC(c2ccco2)Nc2ccccc21 (configuration not stated) gave an IC50 of 487 µM.
For O=C1CC(c2cccs2)Nc2ccccc21 (configuration not stated), the IC50 was 382 µM.
CCCCC1CC(=O)c2cc(OC)ccc2N1 (configuration not stated) gave an IC50 of 683 µM.
Molecule OCC(CO)N[C@H]1C[C@](O)(CO)[C@@H](O)[C@H](O)[C@H]1O [VOGLIBOSE] has an IC50 of 325 µM.
O=C1CC(c2ccc(F)cc2F)Nc2ccccc21 (configuration not stated) gave an IC50 of 211 µM.
With O=C1CC(C2CC2)Nc2ccccc21 (configuration not stated) the IC50 was 284 µM.
Molecule COc1ccc(C2CC(=O)c3ccccc3N2)cc1 (configuration not stated) has an IC50 of 303 µM.
CCC1CC(=O)c2ccccc2N1 (configuration not stated) gave an IC50 of 272 µM.
For O=C1CC(C2CCCO2)Nc2ccccc21 (configuration not stated), the IC50 was 667 µM.
Molecule O=C1CC(C2CCOC2)Nc2ccccc21 (configuration not stated) has an IC50 of 867 µM.
